Each compound was assayed on GUMC-403 (assay: viability at highest tested concentration (max response) relative to DMSO (% of DMSO control); higher = less cytotoxic). Conditions: library / dose series: MIPE library, 11-point 1:3 dilution; top concentration 23 µM; 48 h.
Outline: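 Patient-derived GUMC-403 papilloma cells grown by conditional reprogramming were plated at 700/well in 5 μL F + Y medium in 1536-well plates and incubated overnight at 37 °C. They then received 23 nL of MIPE 4.0 compounds by pin tool (11-point 1:3 series) for 48 h. CellTiter-Glo luminescence was read on a ViewLux and normalised with DMSO wells as 100% and empty wells as 0%. The value is viability at the highest tested concentration relative to DMSO control.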
Work on `[O-]C(=O)C/1=N/C(=O)NC(=O)N1` yielded a viability of 90.2. `Clc1ccc2c(N3CCN(CCCN4CCN(c5ccnc6cc(Cl)ccc56)CC4)CC3)ccnc2c1` was tested, and the viability was 119.

Same assay, conditions: library / dose series: MIPE library, 11-point 1:3 dilution; top concentration 46.1 µM; 48 h
Work on `COC1=CC=C(C=C1O)C/2=C/C(=O)C3=C(O2)C=C(O)C=C3O` yielded a viability of 76.3. `COC(=O)C/1=C(C)/N/C(=C(\C1C2=CC(=CC=C2)[N+]([O-])=O)C(=O)OCCCN3CCC(CC3)(C4=CC=CC=C4)C5=CC=CC=C5)C` (stereo not given) showed a viability of 128. `COC(=O)Nc1nc2cc(C(=O)c3cccs3)ccc2[nH]1` was tested, and the viability was 105. `N#Cc1c(C2CCNCC2)cc(-c2c(O)cccc2OCC2CC2)nc1N` gave a viability of 103. Work on `CC1CCN(c2cc(N3CCN(C)CC3)ccc2NC(=O)c2cc(C#N)c[nH]2)CC1` yielded a viability of 116. For `O=C(O)C(=O)Nc1cccc(-c2nnn[nH]2)c1`, the viability was 120. In the case of `NC/1=N/C(=O)N(/C=C1F)[C@H]2CS[C@H](CO)O2`, the viability is reported as 115. In the case of `CCOC(=O)\C1=C\[C@]2(CC)CCCN3CCC4=C([C@H]23)[N]1C5=C4C=CC=C5`, the viability is reported as 83.9. In the case of `CN(C)C(=O)[C@H](O)[C@H](Cc1ccccc1)NC(=O)c1cc2cc(Cl)ccc2[nH]1`, the viability is reported as 114. `CC\1=C(C(=O)N(\C=C1)C2=CC=C(C=C2)C3=NC=CO3)/C4=CC5=CN=C(N)N=C5C=C4` showed a viability of 79.7. In the case of `Cc1cc2c(F)c(Oc3ncnn4cc(OC[C@@H](C)O)c(C)c34)ccc2[nH]1`, the viability is reported as 118. For `CCOC(=O)[C@H](CCc1ccccc1)N[C@H]1CS[C@H](c2cccs2)CN(CC(=O)O)C1=O.Cl`, the viability was 118. Compound `COc1ccc(CC2NCCc3cc(OC)c(OC)cc32)cc1OC` (stereo not given) has a viability of 91.3. `Cc1cnc(C(=O)O)c[n+]1[O-]` showed a viability of 117. In the case of `CCCCC[C@H](O)/C=C/[C@H]1[C@H](O)CC(=O)[C@@H]1C/C=C\CCCC(=O)O`, the viability is reported as 119. Work on `CNC[C@H](O)c1cccc(O)c1` yielded a viability of 139. With `C\C1=C\C(=O)OC2=C1C=CC(=C2)O` the viability was 110. `c1cc2c(cc1[C@H]1OC[C@H]3[C@@H]1CO[C@@H]3c1ccc3c(c1)OCO3)OCO2` showed a viability of 124. `CCO[C@@H]1OC(=O)C[C@@H]1NC(=O)[C@@H]1CCCN1C(=O)[C@@H](NC(=O)c1ccc(N)c(Cl)c1)C(C)(C)C` showed a viability of 138. Compound `CC(N[C@H]1C[C@@H]1c1ccccc1)c1ccc2c(c1)OCCO2` (stereo not given in full) has a viability of 129. Compound `CCc1cccc(CC)c1NC(=O)N1Cc2[nH]nc(NC(=O)c3ccc(N4CCN(C)CC4)cc3)c2C1` has a viability of 87.2. `CC[N+](CC)(CC)CCOc1cccc(OCC[N+](CC)(CC)CC)c1OCC[N+](CC)(CC)CC` showed a viability of 97.6. For `O=NN(CCCl)C(=O)NCCCl`, the viability was 131. With `Cc1nc2c([nH]1)-c1ccccc1N(C(=O)c1ccc(NC(=O)c3ccccc3-c3ccccc3)cc1)CC2` the viability was 126. `COC(=O)\C1=C\CCN(C)C1` gave a viability of 111. Work on `CCN(C(=O)C/1=C(O)/C2=C(C=CC=C2Cl)N(C)C1=O)C3=CC=CC=C3` yielded a viability of 119. Compound `CC[C@]1(O)C[C@@H]2CN(CCc3c([nH]c4ccccc34)[C@@](C(=O)OC)(c3cc4c(cc3OC)N(C)[C@H]3[C@@](O)(C(N)=O)[C@H](O)[C@]5(CC)C=CCN6CC[C@]43[C@@H]65)C2)C1` has a viability of 114. Compound `CC(COc1ccccc1)N(CCCl)Cc1ccccc1` (stereo not given) has a viability of 122. `CC1(C)NC(=O)N(c2ccc([N+](=O)[O-])c(C(F)(F)F)c2)C1=O` gave a viability of 75.8. Work on `CC(C)(C#N)c1cc(Cn2cncn2)cc(C(C)(C)C#N)c1` yielded a viability of 116. Work on `CC(=O)N[C@@H]1[C@@H](NC(N)=N)\C=C(/O[C@H]1[C@H](O)[C@H](O)CO)C(O)=O` yielded a viability of 129. `O=C1CCC[C@@H]2[C@H]3CCCN4CCC[C@@H](CN12)[C@@H]34` was tested, and the viability was 117. `OC1=C(C=CC=C1)C2=CC=C(C=C2)C3=CSC4=C3C(=C(/C#N)C(=O)N4)/O` showed a viability of 125. Work on `CN1CCN(C(=O)O[C@H]2c3nccnc3C(=O)N2c2ccc(Cl)cn2)CC1` yielded a viability of 117. Work on `CCCCCCCCCCCCCCCCCCCCCCO` yielded a viability of 103. Compound `CN1C[C@H]2c3ccccc3Oc3ccc(Cl)cc3[C@@H]2C1` has a viability of 91.4. For `CC(O)C1C2C(C)\C(=C(/N2C1=O)C(O)=O)SC3CNC(C3)C(=O)N(C)C` (stereo not given), the viability was 115. `CN(C)C(=O)COC(=O)Cc1ccc(OC(=O)c2ccc(NC(=N)N)cc2)cc1` showed a viability of 62.7. `CC(C)Nc1cc(C(F)(F)F)cc2nc(NC(=O)c3cccnc3)nn12` showed a viability of 113. Work on `CC(=O)NCCC(=O)N[C@@H](CCC(N)=O)C(=O)N[C@@H](CO)C(=O)N[C@@H](CCC(N)=O)C(=O)N[C@@H](CCC(N)=O)C(=O)N[C@H](C(=O)N[C@@H](Cc1ccccc1)C(=O)N[C@]1(C)CCCCCC/C=C\CCC[C@@](C)(C(=O)N[C@@H](CCC(N)=O)C(=O)N[C@@H](CC(N)=O)C(N)=O)NC(=O)[C@H](CC(C)C)NC(=O)[C@H](CC(C)C)NC(=O)[C@@H](CCCNC(=N)N)NC(=O)[C@H](Cc2c[nH]c3ccccc23)NC(=O)[C@H](CC(C)C)NC(=O)[C@H](CC(N)=O)NC1=O)[C@H](C)O` yielded a viability of 99.6. Compound `C[C@]12CC[C@@H]3c4ccc(OC(=O)N(CCCl)CCCl)cc4CC[C@H]3[C@@H]1CC[C@@H]2OP(=O)([O-])[O-].[Na+].[Na+]` has a viability of 124. In the case of `O=[N+]([O-])c1cnc(Sc2nnc(O)n2-c2ccc3c(c2)OCCO3)s1`, the viability is reported as 91.3. `O=C(Nc1ccc(OC(F)(F)F)cc1)c1sccc1NCc1ccnc2ccccc12` showed a viability of 91.2. `CN[C@@H]1Cc2cccc3[nH]c(=O)n(c23)C1` showed a viability of 112. `CCCC(C)(COC(N)=O)COC(=O)NC(C)C` (stereo not given) was tested, and the viability was 117. `CNC(=O)c1cc(Oc2ccc(NC(=O)Nc3ccc(Cl)c(C(F)(F)F)c3)c(F)c2)ccn1` gave a viability of 101. With `Cc1cc(O)c2c(c1)C(=O)c1cccc(O)c1C2=O` the viability was 95.5. `C[C@@H]1C/C=C/C=C/C=C/C=C/[C@@H](O[C@@H]2O[C@H](C)[C@@H](O)[C@H](N)[C@@H]2O)C[C@@H]2O[C@](O)(C[C@@H](O)C[C@@H]3O[C@H]3/C=C/C(=O)O1)C[C@H](O)[C@H]2C(=O)O` gave a viability of 104. Compound `CCn1c(=O)c2c(nc(/C=C/c3ccc(OC)c(OC)c3)n2C)n(CC)c1=O` has a viability of 134. For `COc1cccc2c(NCc3ccccc3)nc(-n3c(N)nc4ccccc43)nc12`, the viability was 131. Work on `O=C(O)CCC1CCC(c2cc(F)ccc2F)([S+](=O)([O-])c2ccc(Cl)cc2)CC1` (stereo not given) yielded a viability of 99.9. In the case of `OCCN(CCO)c1nc(N2CCCCC2)c2nc(N(CCO)CCO)nc(N3CCCCC3)c2n1`, the viability is reported as 77. `O=C1NC(=O)/C(=C/c2cccc(C(F)(F)F)c2)S1` showed a viability of 106. Work on `COc1cc2c(cc1-c1c(C)noc1C)ncc1[nH]c(=O)n([C@H](C)c3ccccn3)c12` yielded a viability of 69.1. With `N[C@@H]1CONC1=O` the viability was 127. With `Cc1ccc(C(=O)Nc2ccc([S+](=O)([O-])O)c3cc([S+](=O)([O-])O)cc([S+](=O)([O-])O)c23)cc1NC(=O)c1cccc(NC(=O)Nc2cccc(C(=O)Nc3cc(C(=O)Nc4ccc([S+](=O)([O-])O)c5cc([S+](=O)([O-])O)cc([S+](=O)([O-])O)c45)ccc3C)c2)c1` the viability was 123. For `CC(=O)OCC(=O)[C@@]1(O)CC[C@H]2[C@@H]3CCC/4=C/C(=O)CC[C@]4(C)[C@H]3C(=O)C[C@]12C`, the viability was 119. Work on `CC(C)[C@H](O)C(=O)N[C@@H](C)C(=O)N[C@@H]1C(=O)N(C)CCc2ccccc21` yielded a viability of 84.6.

Reference: the supplement of paper PMC6723410
